Measurements reported in patent US20240327406A1, “POTASSIUM CHANNEL MODULATORS” (Autifony Therapeutics Limited, priority 2021, published 2024).
Values joined by “and” are separate entries in the source; they are usually repeats but may differ in a detail not shown here. Identical values can stand only once. Like-named read-outs stand apart in the source and are kept apart here.

Molecular target: T1, human Kv3.1 channels (hKv3.1) (Homo sapiens, UniProt P48547)
T1 sequence (P48547 1-501 limits assumed): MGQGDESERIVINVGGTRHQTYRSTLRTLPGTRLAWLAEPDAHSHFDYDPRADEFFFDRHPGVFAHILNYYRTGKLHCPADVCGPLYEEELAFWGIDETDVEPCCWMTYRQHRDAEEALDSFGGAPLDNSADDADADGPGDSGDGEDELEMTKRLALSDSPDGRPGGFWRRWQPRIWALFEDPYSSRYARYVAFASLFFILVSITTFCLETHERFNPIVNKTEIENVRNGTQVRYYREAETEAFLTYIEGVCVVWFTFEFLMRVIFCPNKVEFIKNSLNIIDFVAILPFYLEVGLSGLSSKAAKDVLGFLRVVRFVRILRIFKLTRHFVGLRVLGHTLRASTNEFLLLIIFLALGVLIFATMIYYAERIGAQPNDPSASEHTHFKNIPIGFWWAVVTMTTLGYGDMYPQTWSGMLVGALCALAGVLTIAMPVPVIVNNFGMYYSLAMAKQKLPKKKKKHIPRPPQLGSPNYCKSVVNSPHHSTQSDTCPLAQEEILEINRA
Assay: Measurement of Kv3 channel modulation: Kv3.1 assay (IonWorks Quattro whole-cell electrophysiology)
Assay type: cell-based
Details: for Kv3.1 max R %: normalised to maximum effect of reference compound (50 microM)
Method: The ability of the compounds of the invention to modulate the voltage-gated potassium channel subtypes Kv3.4/Kv3.3/Kv3.2/Kv3.1 may be determined using the following assay. Analogous methods may be used to investigate the ability of the compounds of the invention to modulate other channel subtypes.
Human embryonic kidney (HEK)-hKv3.1 cell line is generated by transfecting HEK-293 cells with an expression vector with human Kv3.1 (NM_004976.4). Cells are cultured with MEM supplemented with 10% Heat-Inactivated FBS, 2 mM L-glutamine, 1% Penicillin-Streptomycin, and 0.6 mg/ml of Geneticin (G418). HEK-hKv3.1b cells were amplified in T175 cm2 flask at 37° C. with 5% CO2, using MEM amplification medium, containing the G418 selection antibiotic (0.6 mg/ml). Cells were detached every 3-4 days, using DPBS to wash twice the flask, then TrypLE to dislodge the cells, and re-plated at a density of 2-4×10^6 cells/flask.
The day of the experiment, cells are removed from the incubator and the culture medium removed. Cells are washed with 5 ml of Dulbecco's PBS (DPBS) calcium and magnesium free and detached by the addition of 3 ml Versene (Invitrogen, Italy) followed by a brief incubation at 37° C. for 5 minutes. The flask is tapped to dislodge cells and 10 ml of DPBS containing calcium and magnesium is added to prepare a cell suspension. The cell suspension is then placed into a 15 ml centrifuge tube and centrifuged for 2 min at 1200 rpm. After centrifugation, the supernatant is removed and the cell pellet re-suspended in 4 ml of DPBS containing calcium and magnesium using a 5 ml pipette to break up the pellet. Cell suspension volume is then corrected to give a cell concentration for the assay of approximately 3 million cells per ml.
Experiments are conducted at r.t. using IonWorks Quattro™ planar array electrophysiology technology (Molecular Devices Corp.) with PatchPlate™ PPC. Stimulation protocols and data acquisition are carried out using a microcomputer (Dell Pentium 4). Planar electrode hole resistances (Rp) are determined by applying a 10 mV voltage step across each well. These measurements are performed before cell addition. After cell addition and seal formation, a seal test is performed by applying a voltage step from −80 mV to −70 mV for 160 ms. Following this, amphotericin-B solution is added to the intracellular face of the electrode to achieve intracellular access. Cells are held at −70 mV. Leak subtraction is conducted in all experiments by applying 50 ms hyperpolarizing (10 mV) prepulses to evoke leak currents followed by a 20 ms period at the holding potential before test pulses.
For hKv3.2 and hKv3.1, assays from the holding potential of −70 mV, a first test pulse at −15 mV was applied for 100 ms and after 100 ms at −70 mV a second pulse at +40 mV was applied for 50 ms. Cells were then maintained for 100 ms at −100 mV and another pulse from […] to +40 mV (duration 50 ms) was applied to clamp later the voltage at −40 mV during 200 ms
The intracellular solution contains the following (in mM): K-gluconate 100, KCl 54, MgCl2 3.2, HEPES 5, adjusted to pH 7.3 with KOH. Amphotericin-B solution is prepared as 50 mg/ml stock solution in DMSO and diluted to a final working concentration of 0.1 mg/ml in intracellular solution.
Compounds of use in the invention (or reference compounds such as N-cyclohexyl-N-[(7,8-dimethyl-2-oxo-1,2-dihydro-3-quinolinyl)methyl]-N′-phenylurea) are dissolved in dimethylsulfoxide (DMSO) at a stock concentration of 10 mM. […] Each dilution (1 μL) is transferred to another compound plate and external solution containing 0.05% pluronic acid (66 μL) is added. 3.5 μL from each plate containing a compound of the invention is added and incubated with the cells during the IonWorks Quattro™ experiment. The final assay dilution is 200 and the final compound concentrations are in the range 50 μM to 50 nM.

[1] = Table 2, Example compounds, rounded to one decimal place, some compounds with two data sets (n given in cell), read-out: Kv3.1 pEC50 (converted)
[2] = Table 3, Reference Examples and corresponding Examples, rounded to one decimal place, read-out: Kv3.1 pEC50 (converted)
[3] = Kv3.1 pEC50, Table 2, Example compounds, rounded to one decimal place, some compounds with two data sets (n given in cell)
[4] = Table 1, Reference Examples, current at -15 mV step, normalised to 50 microM reference compound, read-out: Kv3.1 pEC50 (converted)

Row | SMILES | Kv3.1 max R % (Table 2, Example compounds) | EC50 [1] | further results
1 | Cc1ccc(Oc2ccc(-n3c(=O)[nH]c4cccnc43)cn2)c2c1OCC21CC1 [Example 1, 3-[6-(7-methylspiro[2H-benzofuran-3,1′-cyclopropane]-4-yl)oxy-3-pyridyl]-1H-imidazo[4,5-b]pyridin-2-one] | 148% | 200 nM | EC50 [2]: 200 nM
2 | O=c1[nH]c2cccnc2n1-c1ccc(Oc2cccc3c2C2(CC2)CO3)nc1 [Example 3, 3-(6-spiro[2H-benzofuran-3,1′-cyclopropane]-4-yloxy-3-pyridyl)-1H-imidazo[4,5-b]pyridin-2-one] | 197% |  | EC50 [3]: 100 nM
3 | Cn1cc2[nH]c(=O)n(-c3cnc(Oc4cccc5c4C4(CC4)CO5)cn3)c2n1 [Example 21, 2-methyl-6-(5-spiro[2H-benzofuran-3,1′-cyclopropane]-4-yloxypyrazin-2-yl)-4H-imidazo[4,5-c]pyrazol-5-one] | 96% | 10000 nM | 
4 | Cc1ccc(Oc2ccc(-n3c(=O)[nH]c4cn(C)nc43)cn2)c2c1OCC21CC1 [Example 19, 2-methyl-6-[6-(7-methylspiro[2Hbenzofuran-3,1′-cyclopropane]-4-yl)oxy-3-pyridyl]-4H-imidazo[4,5-c]pyrazol-5-one] | 99% | 316 nM | 
5 | CC1(C)COc2cccc(Oc3cnc(-n4c(=O)[nH]c5cccnc54)cn3)c21 [Example 9, 3-[5-[(3,3-dimethyl-2H-benzofuran-4-yl)oxy]pyrazin-2-yl]-1H-imidazo[4,5-b]pyridin-2-one] | 147% | 1260 nM | 
6 | CC1(C)COc2cccc(Oc3ncc(-n4c(=O)[nH]c5ccncc54)cn3)c21 [Example 23, 3-[2-[(3,3-dimethyl-2H-benzofuran-4-yl)oxy]pyrimidin-5-yl]-1H-imidazo[4,5-c]pyridin-2-one] | 101% and 107% | 10000 nM and 7940 nM | EC50 [2]: 7940 nM
7 | Cc1ccc(Oc2ccc(-n3c(=O)[nH]c4cncnc43)cn2)c2c1OCC21CC1 [Example 29, 9-[6-(7-methylspiro[2H-benzofuran-3,1′-cyclopropane]-4-yl)oxy-3-pyridyl]-7H-purin-8-one] | 117% | 158 nM | 
8 | O=c1[nH]c2c[nH]nc2n1-c1ccc(Oc2cccc3c2C2(CC2)CO3)nc1 [Example 34, 6-(6-spiro[2H-benzofuran-3,1′-cyclopropane]-4-yloxy-3-pyridyl)-2,4-dihydroimidazo[4,5-c]pyrazol-5-one] | 128% and 131% | 10000 nM | Kv3.1 pEC50 (Table 2, Example compounds, rounded to one decimal place, some compounds with two data sets (n given in cell)): 5.0 (n = 2)
9 | O=c1[nH]c2cccnc2n1-c1cnc(Oc2cccc(OC(F)(F)F)c2)cn1 [Example 10, 3-[5-[3-(trifluoromethoxy)phenoxy]pyrazin-2-yl]-1H-imidazo[4,5-b]pyridin-2-one] | 94% | 2000 nM | 
10 | COc1cccc(Oc2ncc(-n3c(=O)[nH]c4cccnc43)cn2)c1 [Example 16, 3-[2-(3-methoxyphenoxy)pyrimidin-5-yl]-1H-imidazo[4,5-b]pyridin-2-one] | 124% | 3160 nM | 
11 | Cc1ccc(Oc2ccc(N3C(=O)NC4COCC43)cn2)c2c1OCC21CC1 (stereo not drawn) [RE3, reference compound] |  |  | EC50 [4]: > 50100 nM; Kv3.1 max R % (Table 1, Reference Examples): 30%
12 | O=c1[nH]c2ncccc2n1-c1ccc(Oc2cccc3c2C2(CC2)CO3)nc1 [Example 36, 1-(6-spiro[2H-benzofuran-3,1′-cyclopropane]-4-yloxy-3-pyridyl)-3H-imidazo[4,5-b]pyridin-2-one] | 113% |  | EC50 [3]: 631 nM; EC50 (Kv3.1 pEC50, Table 3, Reference Examples and corresponding Examples, rounded to one decimal place): 631 nM
13 | Cc1cnc2c(c1)[nH]c(=O)n2-c1cnc(Oc2cccc3c2C2(CC2)CO3)cn1 [Example 38, 6-methyl-3-(5-spiro[2H-benzofuran-3,1′-cyclopropane]-4-yloxypyrazin-2-yl)-1H-imidazo[4,5-b]pyridin-2-one] | 122% | 200 nM | 
14 | Cc1ccc(Oc2ccc(N3CCNC3=O)cn2)c2c1OCC21CC1 [RE7, reference compound] |  |  | EC50 [4]: 39800 nM; Kv3.1 max R % (Table 1, Reference Examples): 29%
15 | O=c1[nH]c2cnccc2n1-c1ccc(Oc2cccc(OC(F)(F)F)c2)nc1 [RE10, reference compound] |  |  | EC50 [2]: 2510 nM
16 | Cc1ccc(Oc2ncc(-n3c(=O)[nH]c4cccnc43)cn2)c2c1OCC21CC1 [Example 31, 3-[2-(7-methylspiro[2H-benzofuran-3,1′-cyclopropane]-4-yl)oxypyrimidin-5-yl]-1H-imidazo[4,5-b]pyridine-2-one] | 217% | 200 nM | 
17 | O=c1[nH]c2cccnc2n1-c1ccc(Oc2cccc(OC(F)(F)F)c2)nc1 [Example 7, 3-[6-[3-(trifluoromethoxy)phenoxy]-3-pyridyl]-1H-imidazo[4,5-b]pyridin-2-one] | 89% and 96% | 501 nM and 398 nM | EC50 [2]: 398 nM; EC50 (Table 5, Example compounds, read-out: Kv3.1 pEC50 (converted)): 398 nM
